Test results from patent US20170190705A1, “Compositions and Methods for Inhibiting BMP” (THE BRIGHAM AND WOMAN'S HOSPITAL, INC., priority 2014, published 2017).

Columns and labels:
[1] = target: CAMK2α (Homo sapiens, UniProt Q9UQM7); assay: Kinome profiling CAMK2α; format: biochemical; details: read-out: Inhibitory activity CAMK2α; for inhibition at 0.1 µM: 100 nM
Protocol: (§1) . The kinome-wide selectivity was determined following the methods previously reported by Mohedas et al., ACS Chem Biol 2013, 8, 1291-1302 and Sanvitale et al., PLoS One 2013, 8, e62721.

[2] = target: T1, SGK3 (Homo sapiens, UniProt Q96BR1); assay: Kinome profiling SGK3; format: biochemical; details: read-out: Inhibitory activity SGK3; for inhibition at 0.1 µM: 100 nM
T1 sequence (Q96BR1 1-496): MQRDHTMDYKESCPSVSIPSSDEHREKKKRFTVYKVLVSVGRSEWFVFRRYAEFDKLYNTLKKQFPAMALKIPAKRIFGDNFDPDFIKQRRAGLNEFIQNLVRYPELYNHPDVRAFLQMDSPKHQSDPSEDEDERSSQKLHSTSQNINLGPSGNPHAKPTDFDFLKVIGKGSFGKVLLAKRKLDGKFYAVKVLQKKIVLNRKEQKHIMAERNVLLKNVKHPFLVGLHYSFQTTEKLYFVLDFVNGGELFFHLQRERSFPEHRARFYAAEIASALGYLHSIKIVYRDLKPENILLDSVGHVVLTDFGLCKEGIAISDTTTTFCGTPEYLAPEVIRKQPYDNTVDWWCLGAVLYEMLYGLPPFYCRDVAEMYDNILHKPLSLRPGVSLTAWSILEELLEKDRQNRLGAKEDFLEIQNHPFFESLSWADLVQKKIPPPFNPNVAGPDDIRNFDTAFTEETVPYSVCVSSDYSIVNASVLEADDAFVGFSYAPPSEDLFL
Protocol: as §1

[3] = target: T2, PHKγ2 (Homo sapiens, UniProt P15735); assay: Kinome profiling PHKγ2; format: biochemical; details: read-out: Inhibitory activity PHKγ2; for inhibition at 0.1 µM: 100 nM
T2 sequence (P15735 1-406): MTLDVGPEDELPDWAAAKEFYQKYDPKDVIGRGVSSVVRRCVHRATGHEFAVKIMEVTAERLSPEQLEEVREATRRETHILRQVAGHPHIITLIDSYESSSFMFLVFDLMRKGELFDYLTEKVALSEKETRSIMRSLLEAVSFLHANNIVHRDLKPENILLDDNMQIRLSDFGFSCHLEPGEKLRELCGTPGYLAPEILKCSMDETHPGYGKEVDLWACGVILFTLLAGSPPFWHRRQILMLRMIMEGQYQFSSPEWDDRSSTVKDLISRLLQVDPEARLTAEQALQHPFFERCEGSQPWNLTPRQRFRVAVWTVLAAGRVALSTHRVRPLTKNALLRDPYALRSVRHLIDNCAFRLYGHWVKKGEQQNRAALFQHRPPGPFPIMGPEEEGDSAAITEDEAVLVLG
Protocol: as §1

[4] = target: DYRK1B (Homo sapiens, UniProt Q9Y463); assay: Kinome profiling DYRK1B; format: biochemical; details: read-out: Inhibitory activity DYRK1B; for inhibition at 0.1 µM: 100 nM
DYRK1B, sequence (Q9Y463 whole entry): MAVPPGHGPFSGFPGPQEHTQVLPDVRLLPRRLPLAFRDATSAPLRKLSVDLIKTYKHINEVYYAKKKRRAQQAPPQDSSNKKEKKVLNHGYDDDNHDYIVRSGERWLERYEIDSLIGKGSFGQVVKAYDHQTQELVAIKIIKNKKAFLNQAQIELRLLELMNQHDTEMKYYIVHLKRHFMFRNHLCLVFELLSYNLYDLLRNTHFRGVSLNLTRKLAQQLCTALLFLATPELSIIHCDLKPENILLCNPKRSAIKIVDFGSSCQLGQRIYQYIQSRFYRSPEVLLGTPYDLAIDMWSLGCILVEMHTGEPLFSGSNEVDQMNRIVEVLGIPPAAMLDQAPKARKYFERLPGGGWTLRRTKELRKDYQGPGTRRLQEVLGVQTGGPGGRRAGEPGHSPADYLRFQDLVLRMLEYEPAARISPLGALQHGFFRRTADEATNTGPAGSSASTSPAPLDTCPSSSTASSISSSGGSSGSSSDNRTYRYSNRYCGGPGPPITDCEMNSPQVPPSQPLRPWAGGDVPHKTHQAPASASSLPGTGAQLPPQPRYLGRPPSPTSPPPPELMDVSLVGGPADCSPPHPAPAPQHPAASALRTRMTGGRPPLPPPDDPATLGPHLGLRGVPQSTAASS
Protocol: as §1

[5] = target: PAR-1Bα (Homo sapiens, UniProt Q7KZI7); assay: Kinome profiling PAR-1Bα; format: biochemical; details: read-out: Inhibitory activity PAR-1Bα; for inhibition at 0.1 µM: 100 nM
PAR-1Bα, sequence (Q7KZI7 1-725 isoform Q7KZI7-4): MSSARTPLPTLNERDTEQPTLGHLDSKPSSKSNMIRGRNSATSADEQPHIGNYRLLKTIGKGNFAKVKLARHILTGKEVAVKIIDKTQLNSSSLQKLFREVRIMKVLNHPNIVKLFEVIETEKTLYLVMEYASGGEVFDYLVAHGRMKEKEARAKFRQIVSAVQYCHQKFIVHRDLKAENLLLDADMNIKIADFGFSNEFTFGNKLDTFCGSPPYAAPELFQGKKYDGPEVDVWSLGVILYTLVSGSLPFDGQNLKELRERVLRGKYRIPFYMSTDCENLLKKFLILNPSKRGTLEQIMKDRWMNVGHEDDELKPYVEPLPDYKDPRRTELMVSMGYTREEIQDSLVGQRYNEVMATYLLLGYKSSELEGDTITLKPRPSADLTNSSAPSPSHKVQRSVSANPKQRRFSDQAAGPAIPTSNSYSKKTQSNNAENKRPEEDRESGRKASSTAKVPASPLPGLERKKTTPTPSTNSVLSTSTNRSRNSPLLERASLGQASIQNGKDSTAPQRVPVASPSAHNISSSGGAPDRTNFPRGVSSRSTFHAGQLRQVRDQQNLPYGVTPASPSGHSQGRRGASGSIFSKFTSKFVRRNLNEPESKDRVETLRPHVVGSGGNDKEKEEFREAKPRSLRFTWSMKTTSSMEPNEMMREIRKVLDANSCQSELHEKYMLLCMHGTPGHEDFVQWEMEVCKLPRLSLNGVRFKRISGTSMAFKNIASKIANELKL
Protocol: as §1

[6] = target: T3, IKK-ε (Homo sapiens, UniProt Q14164); assay: Kinome profiling IKK-ε; format: biochemical; details: read-out: Inhibitory activity IKK-ε; for inhibition at 0.1 µM: 100 nM
T3 sequence (Q14164 1-716): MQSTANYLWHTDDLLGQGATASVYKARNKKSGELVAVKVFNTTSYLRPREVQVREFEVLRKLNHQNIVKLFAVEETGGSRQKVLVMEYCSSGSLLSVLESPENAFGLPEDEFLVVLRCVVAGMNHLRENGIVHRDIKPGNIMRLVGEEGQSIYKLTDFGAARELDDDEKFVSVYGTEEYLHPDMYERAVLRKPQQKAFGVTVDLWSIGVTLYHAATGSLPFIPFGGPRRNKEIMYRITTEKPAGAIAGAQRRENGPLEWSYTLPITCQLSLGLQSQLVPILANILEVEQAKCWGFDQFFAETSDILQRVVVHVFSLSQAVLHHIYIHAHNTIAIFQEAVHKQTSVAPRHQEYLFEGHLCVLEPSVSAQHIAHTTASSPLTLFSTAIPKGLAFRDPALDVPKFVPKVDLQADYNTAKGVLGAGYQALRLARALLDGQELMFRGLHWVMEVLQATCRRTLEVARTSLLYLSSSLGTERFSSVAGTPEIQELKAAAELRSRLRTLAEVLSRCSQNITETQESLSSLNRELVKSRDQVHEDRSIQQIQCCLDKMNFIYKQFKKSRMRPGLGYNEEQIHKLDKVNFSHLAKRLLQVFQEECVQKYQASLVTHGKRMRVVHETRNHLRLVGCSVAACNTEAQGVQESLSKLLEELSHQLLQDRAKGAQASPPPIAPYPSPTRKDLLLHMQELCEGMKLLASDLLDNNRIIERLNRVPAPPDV
Protocol: as §1

[7] = target: T4, ALK2 (Homo sapiens, UniProt Q04771, Q207D); assay: Thermal shift kinase assay ALK2; format: binding; details: for ΔTm at 10 µM: 10 μM inhibitor; for ΔTmDiff.: ALK2 minus ALK5; for ΔT ALK2: Table 6; for ΔT Diff.: Table 6, ALK2 minus ALK5
T4 construct: His tag (TEV-cleavable) (N, cleaved yes); made in house; host or cells: Sf9 insect cells (baculovirus)
T4 sequence (Q04771 201-499 Q207D): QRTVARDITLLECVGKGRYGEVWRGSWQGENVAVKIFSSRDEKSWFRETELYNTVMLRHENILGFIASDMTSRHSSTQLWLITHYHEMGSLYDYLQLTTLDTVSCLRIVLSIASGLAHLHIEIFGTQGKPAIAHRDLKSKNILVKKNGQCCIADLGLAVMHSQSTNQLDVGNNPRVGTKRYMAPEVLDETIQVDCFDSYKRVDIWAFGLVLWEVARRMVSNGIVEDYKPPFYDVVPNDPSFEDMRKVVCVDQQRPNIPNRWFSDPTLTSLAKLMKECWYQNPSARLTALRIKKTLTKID
Protocol: Thermal melting experiments were performed using a Real Time PCR machine Mx3005p (Stratagene) with a protein concentration of 1-2 μM and 10 μM inhibitor as described by Niesen et al., Nat Protoc 2007, 2, 2212-21. Recombinant human kinases for DSF screening were prepared by SGC using the published methods of Sanvitale et al., PLoS One 2013, 8, e62721. The potency and selectivity of certain compounds of the invention based on thermal shift kinase and ligand induced transcriptional activity assays are shown in Table 2.

[8] = target: GSK3β (Homo sapiens, UniProt P49841); assay: Kinome profiling GSK3β; format: biochemical; details: read-out: Inhibitory activity GSK3β; for inhibition at 0.1 µM: 100 nM
GSK3β, sequence (P49841 whole entry): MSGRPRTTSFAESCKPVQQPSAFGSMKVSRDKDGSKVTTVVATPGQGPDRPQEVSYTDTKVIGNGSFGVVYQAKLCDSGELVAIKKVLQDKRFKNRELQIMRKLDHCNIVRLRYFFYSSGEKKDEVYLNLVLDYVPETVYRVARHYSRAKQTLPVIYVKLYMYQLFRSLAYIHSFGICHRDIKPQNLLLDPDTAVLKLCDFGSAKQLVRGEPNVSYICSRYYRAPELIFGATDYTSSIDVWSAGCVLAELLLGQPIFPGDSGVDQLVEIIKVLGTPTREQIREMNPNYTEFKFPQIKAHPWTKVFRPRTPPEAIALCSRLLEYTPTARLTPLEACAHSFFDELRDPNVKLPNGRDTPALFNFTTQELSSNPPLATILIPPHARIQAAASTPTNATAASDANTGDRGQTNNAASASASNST
Protocol: as §1

CAMK2α, sequence (Q9UQM7 whole entry): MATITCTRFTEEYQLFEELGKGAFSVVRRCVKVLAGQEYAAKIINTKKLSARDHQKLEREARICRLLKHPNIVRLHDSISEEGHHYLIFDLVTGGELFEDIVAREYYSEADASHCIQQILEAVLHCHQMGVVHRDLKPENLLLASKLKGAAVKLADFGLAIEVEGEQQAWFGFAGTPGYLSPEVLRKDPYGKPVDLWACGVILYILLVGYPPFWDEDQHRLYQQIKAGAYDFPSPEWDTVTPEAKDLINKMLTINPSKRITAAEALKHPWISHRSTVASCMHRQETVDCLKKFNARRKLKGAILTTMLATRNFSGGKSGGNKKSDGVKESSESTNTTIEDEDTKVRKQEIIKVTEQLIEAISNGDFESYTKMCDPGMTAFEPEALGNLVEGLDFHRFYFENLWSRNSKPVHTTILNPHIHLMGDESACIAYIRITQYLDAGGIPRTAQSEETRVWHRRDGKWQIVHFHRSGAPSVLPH

Compound | inhibition at 0.1 µM [1] | inhibition at 1 µM [1] | inhibition at 0.1 µM [2] | inhibition at 1 µM [2] | inhibition at 0.1 µM [3] | inhibition at 1 µM [3] | inhibition at 0.1 µM [4] | inhibition at 1 µM [4] | inhibition at 0.1 µM [5] | inhibition at 1 µM [5] | inhibition at 0.1 µM [6] | inhibition at 1 µM [6] | ΔTm at 10 µM [7] | ΔTmDiff. [7] | ΔT ALK2 [7] | ΔT Diff. [7] | inhibition at 0.1 µM [8] | inhibition at 1 µM [8]
COc1cc(-c2cc(-c3ccc(N4CCNCC4)cc3)cnc2C)cc(OC)c1OC [Compound 10, 1-(4-(6-methyl-5-(3,4,5-trimethoxyphenyl)pyridin-3-yl)phenyl)piperazine] | -1% | -1% | 3% | 11% | 1% | 0% | 2% | 5% | 2% | 4% | 2% | 2% | 13.7 °C | 4.0 | 13.7 °C | 4.0 °C | 2% | 4%
COc1cc(-c2cc(-c3ccc(N4CCNCC4)cc3)cnc2N)cc(OC)c1OC [Compound 15, 5-(4-(piperazin-1-yl)phenyl)-3-(3,4,5-trimethoxyphenyl)pyridin-2-amine] | 1% | -1% | -8% | 3% | 2% | 3% | -1% | 4% | 1% | 19% | 1% | 20% | 15.1 °C | 1.2 | 15.1 °C | 1.2 °C | 0% | -1%
